According to publication PMC6079014, “Calcium is an essential cofactor for metal efflux by the ferroportin transporter family” (Nature Communications, 2018):
Several values for one entry are separate records, joined by “and”; a condition that tells them apart may be missing. Identical values can stand only once. Like-named read-outs stand apart in the source and are kept apart here.

What was measured:
wild type BbFpn = wild type BbFpn (Bdellovibrio bacteriovorus, UniProt Q6MLJ0); experiment: biochemical; assay type: binding, Bdellovibrio bacteriovorous
mouse Fpn (Fpn-C2) = target: T1, mouse Fpn (Fpn-C2) (Mus musculus, UniProt Q9JHI9, DEL251-290/DEL401-449); experiment: Isothermal titration calorimetry, thermostabilized mouse Fpn construct Fpn-C2; assay type: binding
T1 construct: generated from full-length mouse Fpn (UniProt: Q9JHI9); GFP (C); made in house; host or cells: Sf9 insect cells (baculovirus)
T1 sequence (Q9JHI9 with tags, fused parts or gaps DEL251-290/DEL401-449): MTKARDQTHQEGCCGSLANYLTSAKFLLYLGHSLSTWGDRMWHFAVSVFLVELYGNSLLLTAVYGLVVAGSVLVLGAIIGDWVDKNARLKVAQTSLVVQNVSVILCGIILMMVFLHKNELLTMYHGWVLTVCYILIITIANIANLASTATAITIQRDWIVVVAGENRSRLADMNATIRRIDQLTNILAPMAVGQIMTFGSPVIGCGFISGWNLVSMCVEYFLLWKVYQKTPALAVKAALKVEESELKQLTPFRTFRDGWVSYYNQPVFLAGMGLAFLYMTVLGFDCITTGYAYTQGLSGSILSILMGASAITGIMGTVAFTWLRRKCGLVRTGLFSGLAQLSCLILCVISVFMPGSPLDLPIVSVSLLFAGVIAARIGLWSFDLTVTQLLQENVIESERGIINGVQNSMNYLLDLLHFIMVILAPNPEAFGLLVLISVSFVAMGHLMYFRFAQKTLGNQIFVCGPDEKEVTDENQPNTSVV
From the text: To obtain a purified mammalian Fpn protein conducive for biophysical studies, we generated a protein construct with an increased thermal stability (Deshpande et al., 2018). In brief, the construct (Fpn-C2) was generated from full-length mouse Fpn (UniProt: Q9JHI9 [https://www.uniprot.org/uniprot/Q9JHI9]) by deleting two-loop regions (residues 251–290 and 401–449), followed by an overlapping PCR incorporating the E219A mutation to generate Fpn-C2-E219A. The genes were subsequently cloned with a C-terminal GFP fusion into a baculovirus transfer vector (pFastBac1; Thermo Fisher Scientific) and the proteins were expressed using the Bac-to-Bac Baculovirus and Sf9 cells (Thermo Fisher Scientific) expression method according to the manufacturer’s protocol (Thermo Fisher Scientific). For large scale expression of the protein, 6L Sf9 cells (2 × 10^6 cells/ml) were infected with virus at an optimal multiplicity of infection (MOI) of 2.5 in Insect-XPRESS™ Protein-free Insect Cell Medium with L-glutamine (Lonza) and incubated at 27 °C with shaking at 130 rpm. The cells were spun down 48 h post-infection at 1500 × g for 10 min and the pellet stored at −20 °C until further use.
For Fpn-C2 and Fpn-C2-E219A purification (Deshpande et al., 2018), Sf9 cells were thawed at room temperature with the addition of 2 μl Benzonase (250 units/μL, Sigma-Aldrich), 1 mM MgSO4, 0.2 mM PMSF, and lysed by a single pass through cooled EmulsiFlex-C3 homogenizer (Avestin). All subsequent steps were performed at 4 °C. Membranes were harvested by centrifugation at 106,000 × g for 1 h, and pellets resuspended in Buffer A. The protein was subsequently purified as BbFpn, but with the addition of a second wash on the Ni-NTA column with three column volumes of 25 mM imidazole pH 8, 300 mM NaCl, and 0.03% DDM, and with 0.03% DDM instead of LMNG in the elution and SEC purification. The SEC eluted protein was concentrated to ~10 mg/ml as determined by the BCA assay (Thermo Fisher Scientific) method and stored at −80 °C until further use.
Protein samples were purified as above and diluted to 0.03 mM (1.5 mg/ml) for ITC experiments. The buffer used for ITC was 20 mM Tris pH 8, 50 mM NaCl, and 0.004% LMNG. The buffer was degassed in vacuum (2 h) and pretreated with Chelex-100 (Bio-Rad) to remove residual calcium and/or metal ions bound with moderate affinity. This was done by first washing the Chelex-100 beads with water and then running the dialysis buffer through the beads in a gravity flow column. The samples were subsequently dialyzed overnight against their respective gel filtration buffers. ITC measurements were obtained by using a MicroCal iTC 200 calorimeter (GE Healthcare) and MicroCal PEAQ-ITC (Malvern Instruments) at 20 °C. For calcium and strontium binding measurements, a 2 mM solution was prepared in the protein buffer using a standard 1 M stock solution. […]. For MgCl2 and KCl measurements, a 2–5 mM solution was prepared in the respective buffer.
In each experiment, the protein solution was loaded into the sample cell, and the ligand solution was loaded in the syringe. […] To obtain the effective heat of binding, the heat of dilution, measured by injecting the ligand solution alone into buffer, was subtracted prior to data analysis. The data were fitted using the ‘one binding site’ model using the MicroCal PEAQ-ITC Analysis Software (Malvern Instruments), and the apparent molar reaction […] (ΔH°), entropy (ΔS°), dissociation constant (Kd), and stoichiometry of binding (N) were determined. […]

[1] = Supplementary Figs. 5 and 9, one experiment
[2] = Supplementary Fig. 7a, one experiment

Chain of wild type BbFpn (Q6MLJ0 whole entry): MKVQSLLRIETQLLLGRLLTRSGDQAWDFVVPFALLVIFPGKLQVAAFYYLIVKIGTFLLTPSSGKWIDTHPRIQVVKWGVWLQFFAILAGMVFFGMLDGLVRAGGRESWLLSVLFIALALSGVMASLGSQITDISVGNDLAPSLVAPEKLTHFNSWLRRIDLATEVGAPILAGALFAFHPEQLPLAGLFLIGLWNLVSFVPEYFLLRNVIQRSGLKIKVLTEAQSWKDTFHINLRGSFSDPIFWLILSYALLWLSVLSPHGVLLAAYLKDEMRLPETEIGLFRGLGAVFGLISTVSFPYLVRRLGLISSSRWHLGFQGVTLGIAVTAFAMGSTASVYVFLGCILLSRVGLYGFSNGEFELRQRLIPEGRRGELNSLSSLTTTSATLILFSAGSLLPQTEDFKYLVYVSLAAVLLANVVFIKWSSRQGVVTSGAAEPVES

Question: How did the Kd (wild type BbFpn; 20 °C, 20 mM Tris pH 8, 50 mM NaCl, 0.004% LMNG, read-out: Kd (ITC)) turn out when `[Ca+2]` [Ca^2+, calcium] was run?
Answer: 1.2e-05 ± 4e-07 M

Question: What about the “-TΔS, ITC” value (wild type BbFpn; [1]) of the same compound?
Answer: -15.3 kcal/mol

Question: What about the “N (sites), ITC” value (wild type BbFpn; [1]) of the same compound?
Answer: 0.691 ± 8.5e-3

Question: And the “ΔG, ITC” value (wild type BbFpn; [1])?
Answer: -6.61 kcal/mol

Question: And the “ΔH, ITC” value (wild type BbFpn; [1])?
Answer: 8.68 ± 0.155 kcal/mol

Question: And the Kd (wild type BbFpn; Supplementary Figs. 5 and 9, one experiment, read-out: KD (M), ITC)?
Answer: 1.18e-05 M

Question: What about the “-TΔS, ITC” value (mouse Fpn (Fpn-C2); [2]) of the same compound?
Answer: -9.95 kcal/mol

Question: What about the “N (sites), ITC” value (mouse Fpn (Fpn-C2); [2]) of the same compound?
Answer: 0.804 ± 4.8e-2

Question: And the “ΔG, ITC” value (mouse Fpn (Fpn-C2); [2])?
Answer: -7.47 kcal/mol

Question: What about the “ΔH, ITC” value (mouse Fpn (Fpn-C2); [2]) of the same compound?
Answer: 2.49 ± 0.210 kcal/mol

Question: And the Kd (mouse Fpn (Fpn-C2); thermostabilized mouse Fpn-C2, read-out: Kd (ITC))?
Answer: ~3 µM and 2.7 µM
